Reference: patent US11512091B2, “Crystal of benzoxazole derivative” (MEIJI SEIKA PHARMA CO., LTD., priority 2018, dated 2022)

Experiments:
[1] = Hygroscopicity test (isothermal water vapor adsorption, DVS); assay type: physicochemical; details: at 95% RH, 25° C., relative to weight equilibrium value at 0% RH
Description: Isothermal adsorption measurement of the I type crystal and the II type crystal of the compound represented by formula (1) was performed, using a water vapor adsorption measurement instrument (available from Surface Measurement Systems Ltd., DVS ADVANTAGE 1) (with a sample of about 10 mg, at 25° C., at from 0% RH through 95% RH). As the result of evaluation of hygroscopicity, a weight increase rate at 95% RH (weight increase from initial value/initial value×100, *initial value: weight equilibrium value at 0% RH) is presented in Table 2.

[2] = Stability test (storage of crystals, chemical purity by HPLC); assay type: physicochemical; details: for chemical stability (in words): thermal stability test, photostability test, accelerated stability test
Description: The I type crystal and the II type crystal of the compound represented by formula (1) were put in glass bottles (in about 300 mg each) and stored under various conditions. After the storage period, the chemical purity of the samples taken out was measured by HPLC. The conditions of each test were as follows.
Thermal stability test: 60° C., hermetically sealed, a period of 3 weeks
Photostability test: 25° C., 1.2 million lux hours (2,000 lux, for 25 days)
Accelerated stability test (hermetically sealed): 40° C., 75% RH*, a period of 1 month
Accelerated stability test (opened): 40° C., 75% RH*, a period of 1 month
As the result of evaluation of each stability, the amount of the compound represented by formula (1) contained in the crystal is presented in Table 1 as a residual ratio (a HPLC area percentage ratio to the initial value, expressed in percentage).

PDE4 = experiment: Evaluation of PDE4 inhibition (Scintillation Proximity Assay); assay type: biochemical; details: SPA, [3H]-cAMP, room temperature 120 minutes; read-out: PDE4 inhibiting activity (the concentration at an inhibition rate of 50%)
Description: The PDE4 inhibiting activity was measured in the following manner, employing Scintillation Proximity Assay (SPA). The specimen compound dissolved in dimethyl sulfoxide and diluted 10 fold with a buffer solution for reaction containing 50 mM Tris-HCl (pH of 7.4), 8.3 mMMgCl2, 1.7 mM EGTA, and 3 mg/mL bovine serum albumin (BSA) was added in 10 microliters in a 96-well assay plate. After PDE4 diluted 375 fold with the buffer solution for reaction was further added in 50 microliters, a [2,8-^3H]-Adenosine-3′,5′-cyclic phosphate triethylammonium salt diluted 1,000 fold with the buffer solution for reaction was added in 40 microliters, and the resultant was left to stand still at room temperature for 120 minutes. […] Subsequently, radioactivity was measured with a liquid scintillation counter for a 96-well plate. The inhibition rate of the compound represented by formula (1) to a control was calculated according to the following calculation formula, where the blank was prepared as the buffer solution for reaction only, with no enzyme preparation, and the control was prepared with the enzyme preparation and with only dimethyl sulfoxide instead of the specimen solution. […]

[3] = Accelerated stability test (hermetically sealed): 40° C., 75% RH, 1 month
[4] = Accelerated stability test (opened): 40° C., 75% RH, 1 month
[5] = Photostability test: 25° C., 1.2 million lux hours (2,000 lux, 25 days)
[6] = Thermal stability test: 60° C., hermetically sealed, 3 weeks

Compound | Weight increase rate (%) [1] | Residual ratio (%) of compound represented by formula (1) [2, 3] | Residual ratio (%) of compound represented by formula (1) [2, 4] | Residual ratio (%) of compound represented by formula (1) ([2]; Initial value) | Residual ratio (%) of compound represented by formula (1) [2, 5] | Residual ratio (%) of compound represented by formula (1) [2, 6] | chemical stability (in words) [2] | IC50 (PDE4)
CC(C)(O)C(F)(F)Oc1ccc(-c2nccs2)c2oc(N3CC4CC(C3)N4)nc12 [I type crystal, 1-((2-(3,6-diazabicyclo[3.1.1]heptan-3-yl)-7-(thiazol-2-yl)benzo[d]oxazol-4-yl)oxy)-1,1-difluoro-2-methylpropan-2-ol] | 0.6% | 100.1% | 100.1% | 100.0% | 100.1% | 99.8% | sufficient chemical stability | 
CC(C)(O)C(F)(F)Oc1ccc(-c2nccs2)c2oc(N3CC4CC(C3)N4)nc12 [II type crystal, 1-((2-(3,6-diazabicyclo[3.1.1]heptan-3-yl)-7-(thiazol-2-yl)benzo[d]oxazol-4-yl)oxy)-1,1-difluoro-2-methylpropan-2-ol] | 10.7% | 100.1% | 100.0% | 100.0% | 99.5% | 100.0% | sufficient chemical stability | 
CC(C)(O)C(F)(F)Oc1ccc(-c2nccs2)c2oc(N3CC4CC(C3)N4)nc12 [compound represented by formula (1), 1-((2-(3,6-diazabicyclo[3.1.1]heptan-3-yl)-7-(thiazol-2-yl)benzo[d]oxazol-4-yl)oxy)-1,1-difluoro-2-methylpropan-2-ol] |  |  |  |  |  |  |  | < 100 nM
